These results are taken from PubChem BioAssay (NCI).

Test systems include HCT-15 colon; SK-MEL-28 melanoma; SW-620 colon; MCF7 breast; PC-3 prostate; SF-268 CNS; NCI/ADR-RES ovarian; SF-539 CNS; HCC-2998 colon; NCI-H460 lung.
Common to all, as to test: growth of human tumour cells (NCI), 48 h

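Grown in 96-well plates, cells were treated for 48 hours with each compound at five concentrations. Insufficient inhibition: endpoint recorded as highest concentration tested. Abbreviation: GI50, concentration required for 50% inhibition of growth. TGI marks complete inhibition of growth.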

On to `COc1ccc(C=C2C(=O)NC(=O)NC2=O)cc1OCc1ccccc1`, for which the GI50 in the assay on HCT-15 colon was 30.8 µg/mL; in the assay with SK-MEL-28 melanoma it was 65.7 µg/mL; in the assay with SW-620 colon, 50.7 µg/mL; in the assay on MCF7 breast, 59.6 µg/mL; in the assay on PC-3 prostate, 46.7 µg/mL; in the assay on SF-268 CNS, 29.2 µg/mL. The GI50 with NCI/ADR-RES ovarian is 39.4 µg/mL; with SF-539 CNS it was 20.3 µg/mL. For the same compound, in the assay on SF-539 CNS, the TGI was 47.4 µg/mL.

As for `CNc1ncc2cc(Oc3ccc(F)cc3F)c(=O)n(C)c2n1`, the GI50 in the assay with HCC-2998 colon was over 25000 nM; in the assay on HCT-15 colon, over 25000 nM; in the assay with SK-MEL-28 melanoma, over 25 µM; in the assay on SW-620 colon, over 25 µM; in the assay with MCF7 breast it was over 25000 nM; in the assay on PC-3 prostate it was over 25 µM. The GI50 in the assay on SF-268 CNS is over 25000 nM; in the assay on NCI/ADR-RES ovarian it was over 25000 nM; in the assay on SF-539 CNS it was over 25000 nM; in the assay with NCI-H460 lung it was over 25 µM. The TGI with HCC-2998 colon, in the assay with HCT-15 colon, with SK-MEL-28 melanoma, with SW-620 colon, in the assay on MCF7 breast and with PC-3 prostate was over 25 µM in each case. For the same compound, the TGI in the assay with SF-268 CNS, in the assay on NCI/ADR-RES ovarian, in the assay on SF-539 CNS and with NCI-H460 lung was over 25 µM each time.

With `CCC(=O)c1c(C(F)(F)F)n([O-])c2ccccc2[n+]1=O`, the GI50 with HCC-2998 colon is 1680 nM; in the assay with HCT-15 colon, 1090 nM; in the assay on SK-MEL-28 melanoma, 8.84 µM; in the assay with SW-620 colon it was 2.65 µM; with MCF7 breast, 1080 nM; in the assay on PC-3 prostate, 0.629 µM. The GI50 is 1220 nM in the assay with SF-268 CNS, 1360 nM in the assay with NCI/ADR-RES ovarian, 2810 nM in the assay on SF-539 CNS and 0.695 µM in the assay on NCI-H460 lung. The TGI in the assay with HCC-2998 colon amounted to 6.31 µM; in the assay on HCT-15 colon, 4.88 µM; in the assay on SK-MEL-28 melanoma it was 44.6 µM; with SW-620 colon it was 17.4 µM; in the assay with MCF7 breast it was 6.72 µM; in the assay on PC-3 prostate, 5.34 µM. The TGI in the assay on SF-268 CNS was 6.34 µM; in the assay with NCI/ADR-RES ovarian, 13.3 µM; in the assay on SF-539 CNS, 10.2 µM; in the assay with NCI-H460 lung, 2.6 µM.

Regarding `O=[N+]([O-])c1cc2c(ccc3occc32)o1`, the GI50 in the assay with HCC-2998 colon was 1880 nM; in the assay on HCT-15 colon it was 1960 nM; with SK-MEL-28 melanoma it was 2.17 µM; in the assay with SW-620 colon, 3.17 µM; in the assay on MCF7 breast, 701 nM; with PC-3 prostate it was 10.2 µM. The results for the GI50 in the assay with SF-268 CNS, in the assay on NCI/ADR-RES ovarian and in the assay on SF-539 CNS were 2210 nM, 3280 nM and 2020 nM, respectively. For the same compound, the TGI was 3.88 µM in the assay on HCC-2998 colon; 5.97 µM in the assay with HCT-15 colon; 6.27 µM with SK-MEL-28 melanoma; over 100 µM in the assay on SW-620 colon; 21.2 µM in the assay on MCF7 breast; 38.4 µM in the assay with PC-3 prostate. The TGI in the assay on SF-268 CNS was 12.8 µM; in the assay on NCI/ADR-RES ovarian, 30.9 µM; in the assay with SF-539 CNS, 4.55 µM.

`Cc1ccc([N+](=O)[O-])c2c(NCCC[N+](C)(C)[O-])ccnc12`: the TGI in the assay with HCC-2998 colon is 58.9 µM; with SK-MEL-28 melanoma, over 100 µM; in the assay with SW-620 colon it was over 100 µM; with MCF7 breast, 38.1 µM; with PC-3 prostate, over 100 µM; in the assay on SF-268 CNS it was over 100 µM. In addition, the figures for the TGI in the assay on NCI/ADR-RES ovarian, with SF-539 CNS and with NCI-H460 lung were over 100 µM, over 100 µM and 80.1 µM, respectively.

As to `CC1=NN(c2ccccc2)C(=O)C1N=Nc1ccc(S(N)(=O)=O)cc1` (stereo unspecified), the TGI in the assay with HCT-15 colon, with SK-MEL-28 melanoma, in the assay on SW-620 colon, in the assay on MCF7 breast, with PC-3 prostate and in the assay on SF-268 CNS was over 100 µM throughout. In addition, the TGI with NCI/ADR-RES ovarian, with SF-539 CNS and with NCI-H460 lung was over 100 µM in each case.

For `COC1OC(C(C)O)C2OC(C)(C)OC12` (stereo unspecified), the TGI with HCT-15 colon, in the assay on SK-MEL-28 melanoma, with SW-620 colon, with MCF7 breast, in the assay with PC-3 prostate and with SF-268 CNS was over 100 µM each time. The TGI in the assay on NCI/ADR-RES ovarian, in the assay on SF-539 CNS and with NCI-H460 lung was over 100 µM in each case.

On to `COc1ccc(OC)c(/C=N/N=C2\C(=O)Nc3c(Cl)cc(Cl)cc32)c1`, for which the TGI in the assay with HCC-2998 colon, in the assay on HCT-15 colon, in the assay with SK-MEL-28 melanoma, in the assay on SW-620 colon, in the assay with MCF7 breast and in the assay with PC-3 prostate was over 100 µM in each case. The TGI with NCI/ADR-RES ovarian, in the assay on SF-539 CNS and with NCI-H460 lung was over 100 µM throughout.

For the compound `CCCCCCCCCCCCCCCCCc1nnc(N)o1`, the TGI in the assay on HCC-2998 colon, in the assay with HCT-15 colon, in the assay on SK-MEL-28 melanoma, in the assay with SW-620 colon, in the assay with SF-268 CNS and in the assay on SF-539 CNS was over 100 µM throughout. This compound also showed a TGI with NCI-H460 lung of over 100 µM.

In the case of `COc1cc2c(cc1OCCCCCn1c3ccccc3c3ccccc31)N=C[C@@H]1CCCN1C2=O`, the GI50 in the assay with HCC-2998 colon was 1710 nM; in the assay on HCT-15 colon, 1670 nM; in the assay with SK-MEL-28 melanoma, 1.8 µM; with MCF7 breast, 2330 nM; in the assay with PC-3 prostate, 2.36 µM; in the assay on SF-268 CNS it was 1910 nM. The GI50 in the assay on NCI/ADR-RES ovarian was 2140 nM; with SF-539 CNS, 1850 nM. Also, the TGI was 3.18 µM in the assay on HCC-2998 colon; 3.48 µM in the assay on HCT-15 colon; 3.5 µM in the assay on SK-MEL-28 melanoma; 9.19 µM in the assay on MCF7 breast; 7.73 µM in the assay with PC-3 prostate; 3.74 µM in the assay on SF-268 CNS. Also, the TGI in the assay on NCI/ADR-RES ovarian turned out to be 4.75 µM; in the assay on SF-539 CNS, 3.37 µM.

In the case of `O=C1NN=CN2C(=O)CCC12` (stereo unspecified), the TGI in the assay on HCC-2998 colon, in the assay on HCT-15 colon, in the assay on SK-MEL-28 melanoma, in the assay with SW-620 colon, in the assay with SF-268 CNS and in the assay with SF-539 CNS was over 100 µM each time. In the assay on NCI-H460 lung, this compound came in with a TGI of over 100 µM.

With `O=C(NN1C(=O)CSC12CCC(c1ccccc1)CC2)c1[nH]c2ccc(F)cc2c1-c1ccccc1` (stereo unspecified), the GI50 is 14900 nM in the assay on HCC-2998 colon; 16600 nM in the assay on HCT-15 colon; 18.1 µM in the assay on SK-MEL-28 melanoma; 17.4 µM in the assay with SW-620 colon; 25300 nM in the assay on MCF7 breast; 18.1 µM in the assay with PC-3 prostate. Further, the GI50 in the assay with SF-268 CNS is 20000 nM; in the assay on SF-539 CNS it was 20900 nM; with NCI-H460 lung, 19.6 µM. Besides, the TGI in the assay on HCC-2998 colon was determined as 28.3 µM; in the assay on HCT-15 colon, 32.7 µM; in the assay on SK-MEL-28 melanoma it was 34.3 µM; with SW-620 colon it was 36.8 µM; in the assay on MCF7 breast, 71.8 µM; in the assay on PC-3 prostate, 39.6 µM. The TGI in the assay on SF-268 CNS is 48.4 µM; in the assay with SF-539 CNS, 38.3 µM; in the assay with NCI-H460 lung, 47.7 µM.

For the compound `COC1C(O)C(C)OC(O[C@@H]2C[C@H]3CC[C@@H]4[C@H](CC[C@]5(C)[C@@H](C6=CC(=O)OC6)CC[C@]45O)[C@@]3(C)[C@H](O)C2)C1O` (stereo partly specified), the TGI with HCC-2998 colon amounted to 2.69 µM; in the assay on HCT-15 colon it was 0.327 µM; in the assay on SK-MEL-28 melanoma, 0.819 µM; with SF-268 CNS, 0.171 µM; with NCI/ADR-RES ovarian it was 0.183 µM; in the assay with SF-539 CNS, 0.0249 µM. The compound also had a TGI with NCI-H460 lung of 0.0222 µM.

Consider `C=C1C(=O)O[C@H]2[C@H]1CC/C(CNC(=O)/C=C/c1ccc(Cl)cc1Cl)=C\CC[C@@]1(C)O[C@@H]21`, for which the GI50 in the assay on HCC-2998 colon was 1560 nM; in the assay on HCT-15 colon it was 1010 nM; in the assay with SK-MEL-28 melanoma, 1.32 µM; in the assay with SW-620 colon, 1.28 µM; in the assay on PC-3 prostate it was 1.42 µM; in the assay with SF-268 CNS it was 1090 nM. Further, the figures for the GI50 in the assay on NCI/ADR-RES ovarian, in the assay with SF-539 CNS and in the assay on NCI-H460 lung were 2570 nM, 1530 nM and 1.76 µM, respectively. Moreover, the TGI is 2.98 µM with HCC-2998 colon; 2.33 µM in the assay on HCT-15 colon; 2.93 µM in the assay with SK-MEL-28 melanoma; 2.68 µM in the assay on SW-620 colon; 4.4 µM in the assay with PC-3 prostate; 2.67 µM in the assay on SF-268 CNS. Moreover, the figures for the TGI in the assay with NCI/ADR-RES ovarian, in the assay on SF-539 CNS and in the assay on NCI-H460 lung were 12.8 µM, 3.17 µM and 3.52 µM, respectively.

As for `CCOC(=O)c1cn(CC)c2cc3c(cc2c1=O)SCS3`, the TGI with HCC-2998 colon, with HCT-15 colon, in the assay with SK-MEL-28 melanoma, with SW-620 colon, with SF-268 CNS and in the assay with SF-539 CNS was over 100 µM in each case. The same compound returned a TGI in the assay with NCI-H460 lung of over 100 µM.

Take `COc1ccc2c(c1OC)C(=O)O[C@@H]2[C@H]1c2c(c(Br)c3c(c2OC)OCO3)CCN1C`: the GI50 is 4670 nM in the assay on HCT-15 colon; over 100 µM in the assay with SK-MEL-28 melanoma; 5.37 µM in the assay on SW-620 colon; 4180 nM in the assay on MCF7 breast; 9.11 µM with PC-3 prostate; 18000 nM in the assay on SF-268 CNS. For the same compound, the figures for the GI50 in the assay with NCI/ADR-RES ovarian, in the assay with SF-539 CNS and with NCI-H460 lung were 9220 nM, 7090 nM and 3.6 µM, respectively. The TGI in the assay on HCT-15 colon, in the assay on SK-MEL-28 melanoma, in the assay on SW-620 colon, with MCF7 breast, with PC-3 prostate and in the assay on SF-268 CNS was over 100 µM each time. In addition, the TGI in the assay on NCI/ADR-RES ovarian, with SF-539 CNS and in the assay on NCI-H460 lung was over 100 µM throughout.
